Experimental data from patent publication US10377770B2 (Novartis AG, priority 2015, dated 2019).

biological target: C-Raf FL (full length CRAF with Y340E and Y341E activating mutations, co-expressed with h14-3-3 zeta) (Homo sapiens (Human), UniProt P04049, Y340E/Y341E); test: In vitro Raf activity determination, AlphaScreen p-MEK readout, c-Raf (C-Raf FL); assay type: biochemical; conditions: c-Raf approximately 4 nM, ATP 1 μM, pre-incubation 60 minutes, reaction 1 hour
Outline: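 Full-length C-Raf (~4 nM) pre-incubated 60 min at room temperature with compound and kinase-dead biotinylated MEK1 (~10 nM) in Tris pH 7.5, 15 mM MgCl2, BSA, DTT. Reaction started with 1 μM ATP and run 1 h at room temperature. Phospho-MEK detected by AlphaScreen with anti-p-MEK antibody.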

Chain of C-Raf FL (full length CRAF with Y340E and Y341E activating mutations, co-expressed with h14-3-3 zeta) (P04049 whole entry Y340E/Y341E): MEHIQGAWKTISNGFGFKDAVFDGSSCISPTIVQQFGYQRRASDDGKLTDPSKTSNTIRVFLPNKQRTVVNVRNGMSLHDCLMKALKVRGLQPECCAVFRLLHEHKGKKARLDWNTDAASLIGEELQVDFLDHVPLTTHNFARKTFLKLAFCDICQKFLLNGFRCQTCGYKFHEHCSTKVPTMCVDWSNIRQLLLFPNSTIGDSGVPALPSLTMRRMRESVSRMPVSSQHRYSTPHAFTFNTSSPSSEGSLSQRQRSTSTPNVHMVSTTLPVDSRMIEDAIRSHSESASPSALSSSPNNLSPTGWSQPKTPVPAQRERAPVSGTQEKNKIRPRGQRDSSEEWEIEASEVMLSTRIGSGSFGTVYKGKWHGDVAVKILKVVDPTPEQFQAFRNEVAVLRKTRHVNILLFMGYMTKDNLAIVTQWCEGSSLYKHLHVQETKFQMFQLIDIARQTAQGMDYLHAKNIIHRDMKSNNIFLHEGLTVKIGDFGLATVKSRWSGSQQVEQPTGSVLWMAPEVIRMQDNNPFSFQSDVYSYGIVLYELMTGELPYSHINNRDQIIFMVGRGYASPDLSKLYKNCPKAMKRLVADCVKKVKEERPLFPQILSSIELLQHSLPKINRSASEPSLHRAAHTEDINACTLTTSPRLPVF
Chain of C-Raf FL (full length CRAF with Y340E and Y341E activating mutations, co-expressed with h14-3-3 zeta) (P63104 whole entry partner): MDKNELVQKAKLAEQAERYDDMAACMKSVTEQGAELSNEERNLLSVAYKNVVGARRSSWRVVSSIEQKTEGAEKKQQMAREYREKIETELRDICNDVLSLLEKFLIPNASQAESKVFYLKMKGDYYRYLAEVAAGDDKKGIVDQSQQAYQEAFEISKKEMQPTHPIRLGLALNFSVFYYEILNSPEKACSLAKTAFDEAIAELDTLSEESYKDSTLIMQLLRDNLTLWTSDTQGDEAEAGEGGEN

| Compound | IC50 [nM] |
| --- | --- |
| CCN1C(=O)C[C@@H]2COCCN2c2cc(-c3cc(NC(=O)c4cncc(C(F)(F)F)c4)ccc3C)cnc21 [Example 328, (R)-N-(3-(7-ethyl-6-oxo-2,4,4a,5,6,7-hexahydro-1H-[1,4]oxazino[4,3-d]pyrido[2,3-b][1,4]diazepin-10-yl)-4-methylphenyl)-5-(trifluoromethyl) nicotinamide] | 0.1 |
| Cc1ccc(NC(=O)c2cncc(C(F)(F)F)c2)cc1-c1cnc2c(c1)N1CCOC[C@H]1CC(=O)N2CCO [Example 329, (R)-N-(3-(7-(2-hydroxyethyl)-6-oxo-2,4,4a,5,6,7-hexahydro-1H-[1,4]oxazino[4,3-d]pyrido[2,3-b][1,4]diazepin-10-yl)-4-methylphenyl)-5-(trifluoromethyl) nicotinamide] | 0.2 |
| Cc1ccc(NC(=O)c2ccnc(C(F)(F)F)c2)cc1-c1cnc2c(c1)C1CCOCC1OC(=O)N2CCO (stereo not drawn) [Example 330, N-(3-((4,11b-cis)-7-(2-hydroxyethyl)-6-oxo-2,4,4a,6,7,11b-hexahydro-1H-pyrano[4,3-f]pyrido[2,3-d][1,3]oxazepin-10-yl)-4-methylphenyl)-2-(trifluoromethyl) isonicotinamide] | 3.1 |
| Cc1ccc(NC(=O)c2ccnc(C(F)(F)F)c2F)cc1-c1cnc2c(c1)C1CCOCC1OC(=O)N2CCO (stereo not drawn) [Example 331, 3-fluoro-N-(3-((4,11b-cis)-7-(2-hydroxyethyl)-6-oxo-2,4,4a,6,7,11b-hexahydro-1H-pyrano[4,3-f]pyrido[2,3-d][1,3]oxazepin-10-yl)-4-methylphenyl)-2-(trifluoromethyl) isonicotinamide] | 6.6 |
| Cc1ccc(NC(=O)c2ccnc(C(C)(F)F)c2)cc1-c1cnc2c(c1)C1CCOCC1OC(=O)N2CCO (stereo not drawn) [Example 332, 2-(1,1-difluoroethyl)-N-(3-((4,11b-cis)-7-(2-hydroxyethyl)-6-oxo-2,4,4a,6,7,11b-hexahydro-1H-pyrano[4,3-f]pyrido[2,3-d][1,3]oxazepin-10-yl)-4-methylphenyl) isonicotinamide] | 2.1 |
| Cc1ccc(NC(=O)c2ccnc(C(F)(F)F)c2)cc1-c1cnc2c(c1)N1CCOCC1C(C)(C)C2O (stereo not shown) [Example 335, N-(3-(6-hydroxy-5,5-dimethyl-1,2,4,4a,5,6-hexahydro-[1.4]oxazino[4,3-a][1.5]naphthyridin-9-yl)-4-methylphenyl)-2-(trifluoromethyl) isonicotinamide] | 0.1 |
| Cc1ccc(NC(=O)c2ccnc(C(F)(F)F)c2F)cc1-c1cnc2c(c1)N1CCOCC1C(C)(C)C2O (stereo not shown) [Example 336, 3-fluoro-N-(3-(6-hydroxy-5,5-dimethyl-1,2,4,4a,5,6-hexahydro-[1,4]oxazino[4,3-a][1,5]naphthyridin-9-yl)-4-methylphenyl)-2-(trifluoromethyl) isonicotinamide] | 0.2 |
| Cc1ccc(NC(=O)c2ccnc(C(F)(F)F)c2F)cc1-c1cnc2c(c1)N1CCOCC1C(C)(C)C2O (stereo not shown) [Example 337, 3-fluoro-N-(3-(6-hydroxy-5,5-dimethyl-1,2,4,4a,5,6-hexahydro-[1,4]oxazino[4,3-a][1,5]naphthyridin-9-yl)-4-methylphenyl)-2-(trifluoromethyl) isonicotinamide] | 0.3 |
| CCN1C(=O)C2(F)COCC[C@@H]2c2cc(-c3cc(NC(=O)c4ccnc(C(C)(F)F)c4)ccc3C)cnc21 (stereo partly drawn) [Example 338, 2-(1,1-difluoroethyl)-N-(3-((10bR)-6-ethyl-4a-fluoro-5-oxo-2,4,4a,5,6,10b-hexahydro-1H-pyrano[3,4-c][1,8]naphthyridin-9-yl)-4-methylphenyl)isonicotinamide] | 0.5 |
| CCN1C(=O)C2(F)COCC[C@@H]2c2cc(-c3cc(NC(=O)c4ccnc(C(F)(F)F)c4)ccc3C)cnc21 (stereo partly drawn) [Example 339, N-(3-((10bR)-6-ethyl-4a-fluoro-5-oxo-2,4,4a,5,6,10b-hexahydro-1H-pyrano[3,4-c][1,8]naphthyridin-9-yl)-4-methylphenyl)-2-(trifluoromethyl) isonicotinamide] | 0.5 |
| CCN1C(=O)C2(F)COCC[C@@H]2c2cc(-c3cc(NC(=O)c4cccc(C(F)(F)F)c4)cnc3C)cnc21 (stereo partly drawn) [Example 340, N-(5-((10bR)-6-ethyl-4a-fluoro-5-oxo-2,4,4a,5,6,10b-hexahydro-1H-pyrano[3,4-c][1,8]naphthyridin-9-yl)-6-methylpyridin-3-yl)-3-(trifluoromethyl) benzamide] | 1.3 |
| CCN1C(=O)C2COCCC2(C)c2cc(-c3cc(NC(=O)c4ccnc(C(F)(F)F)c4F)ccc3C)cnc21 (stereo not drawn) [Example 347, N-(3-((4a,10b- trans)-6-ethyl-10b-methyl-5-oxo-2,4,4a.5,6,10b-hexahydro-1H-pyrano[3,4-c][1,8]naphthyridin-9-yl)-4-methylphenyl)-3-fluoro-2-(trifluoromethyl) isonicotinamide] | 0.3 |
| CCN1C(=O)C2COCCC2(C)c2cc(-c3cc(NC(=O)c4ccnc(C(F)(F)F)c4F)ccc3C)cnc21 (stereo not drawn) [Example 348, N-(3-((4a,10b- trans)-6-ethyl-10b-methyl-5-oxo-2,4,4a,5,6,10b-hexahydro-1H-pyrano[3,4-c][1,8]naphthyridin-9-yl)-4-methylphenyl)-3-fluoro-2-(trifluoromethyl) isonicotinamide] | 0.7 |
| CCN1C(=O)C2COCCC2(C)c2cc(-c3cc(NC(=O)c4cccc(C(F)(F)F)c4)cnc3C)cnc21 (stereo not drawn) [Example 349, N-(5-((4a,10b- trans)-6-ethyl-10b-methyl-5-oxo-2,4,4a,5,6,10b-hexahydro-1H-pyrano[3,4-c][1,8]naphthyridin-9-yl)-6-methylpyridin-3-yl)-3-(trifluoromethyl) benzamide] | 3 |
| CCN1c2ncc(-c3cc(NC(=O)c4ccnc(C(F)(F)F)c4)ccc3C)cc2[C@@H]2CCOC[C@H]2C12CC2 [Example 361, N-(3-((4a′R,10b′R)-6′-ethyl-1′,2′,4′,4a′,6′,10b′-hexahydrospiro[cyclopropane-1,5′-pyrano[3,4-c][1,8]naphthyridin]-9′-yl)-4-methylphenyl)-2-(trifluoromethyl)isonicotinamide] | 0.9 |
| Cc1ncc(NC(=O)c2cccc(C(C)(F)F)c2)cc1-c1ccc2c(c1)N1CCOC[C@H]1[C@](F)(CO)C2 [Example 367, 3-(1,1-difluoroethyl)-N-(5-((4aS,5S)-5-fluoro-5-(hydroxymethyl)-1,2,4,4a,5,6-hexahydro-[1,4]oxazino[4,3-a]quinolin-9-yl)-6-methylpyridin-3-yl)benzamide] | 1 |
| Cc1ncc(NC(=O)c2cccc(C(C)(F)F)c2)cc1-c1ccc2c(c1)N1CCOC[C@@H]1[C@@](F)(CO)C2 [Example 368, 3-(1,1-difluoroethyl)-N-(5-((4aR,5R)-5-fluoro-5-(hydroxymethyl)-1,2,4,4a,5,6-hexahydro-[1,4]oxazino[4,3-a]quinolin-9-yl)-6-methylpyridin-3-yl)benzamide] | 0.1 |
| Cc1ccc(NC(=O)c2ccnc(C(C)(F)F)c2)cc1-c1ccc2c(c1)N1CCOC[C@H]1[C@](F)(CO)C2 [Example 369, 2-(1,1-difluoroethyl)-N-(3-((4aS,5S)-5-fluoro-5-(hydroxymethyl)-1,2,4,4a,5,6-hexahydro-[1,4]oxazino[4,3-a]quinolin-9-yl)-4-methylphenyl)isonicotinamide] | 0.3 |
| Cc1ccc(NC(=O)c2ccnc(C(C)(F)F)c2)cc1-c1ccc2c(c1)N1CCOC[C@@H]1[C@@](F)(CO)C2 [Example 370, 2-(1,1-difluoroethyl)-N-(3-((4aR,5R)-5-fluoro-5-(hydroxymethyl)-1,2,4,4a,5,6-hexahydro-[1,4]oxazino[4,3-a]quinolin-9-yl)-4-methylphenyl)isonicotinamide] | 0.1 |
| Cc1ccc(NC(=O)c2ccnc(C(C)(F)F)c2)cc1-c1ccc2c(c1)N1CCOC[C@H]1[C@@](F)(CO)C2 [Example 371, 2-(1,1-difluoroethyl)-N-(3-((4aS,5R)-5-fluoro-5-(hydroxymethyl)-1,2,4,4a,5,6-hexahydro-[1,4]oxazino[4,3-a]quinolin-9-yl)-4-methylphenyl)isonicotinamide] | 0.2 |
| Cc1ccc(NC(=O)c2ccnc(C(C)(F)F)c2)cc1-c1ccc2c(c1)N1CCOC[C@@H]1[C@](F)(CO)C2 [Example 372, 2-(1,1-difluoroethyl)-N-(3-((4aR,5S)-5-fluoro-5-(hydroxymethyl)-1,2,4,4a,5,6-hexahydro-[1,4]oxazino[4,3-a]quinolin-9-yl)-4-methylphenyl)isonicotinamide] | 0.3 |
| Cc1ccc(NC(=O)c2ccnc(C(C)(F)F)c2)cc1-c1ccc2c(c1)N1CCOC[C@H]1[C@@](C)(C#N)C2 [Example 373, N-(3-((4aR,5S)-5-cyano-5-methyl-1,2,4,4a,5,6-hexahydro-[1,4]oxazino[4,3-a]quinolin-9-yl)-4-methylphenyl)-2-(1,1-difluoroethyl)isonicotinamide] | 0.4 |
| Cc1ccc(NC(=O)c2ccnc(C(C)(F)F)c2)cc1-c1ccc2c(c1)N1CCOC[C@@H]1[C@](C)(C#N)C2 [Example 374, N-(3-((4aS,5R)-5-cyano-5-methyl-1,2,4,4a,5,6-hexahydro-[1,4]oxazino[4,3-a]quinolin-9-yl)-4-methylphenyl)-2-(1,1-difluoroethyl)isonicotinamide] | 0.2 |
| Cc1ncc(NC(=O)c2ccnc(C(C)(F)F)c2)cc1-c1ccc2c(c1)N1CCOC[C@H]1[C@@](C)(C#N)C2 [Example 375, N-(5-((4aR,5S)-5-cyano-5-methyl-1,2,4,4a,5,6-hexahydro-[1,4]oxazino[4,3-a]quinolin-9-yl)-6-methylpyridin-3-yl)-2-(1,1-difluoroethyl)isonicotinamide] | 0.4 |
| Cc1ncc(NC(=O)c2ccnc(C(C)(F)F)c2)cc1-c1ccc2c(c1)N1CCOC[C@@H]1[C@](C)(C#N)C2 [Example 376, N-(5-((4aS,5R)-5-cyano-5-methyl-1,2,4,4a,5,6-hexahydro-[1,4]oxazino[4,3-a]quinolin-9-yl)-6-methylpyridin-3-yl)-2-(1,1-difluoroethyl)isonicotinamide] | 0.5 |
